Results: patent publication US20250290057A1, “LYTIC AGENT FOR ENTEROCOCCUS FAECALIS” (priority 2022, published 2025)
Converted amounts (≈) assume the structure as drawn. Read-outs that look alike come from different tables or passages of the source.

Tests used:
E. faecalis isolates = experiment: Minimal inhibitory concentration of antibacterial agents, "Eiken" DP42 dry plate; assay type: cell-based, Enterococcus faecalis; details: for MIC: Enterococcus faecalis
Method: (§1) The sensitivity to an antibacterial agent for each of the above-described 30 Enterococcus bacterial strains was invenstigated. Specifically, the bacterial strains prepared in 1 McFarland standard with physiological saline were diluted 500-fold with a BHI culture medium, and then aerobically cultured in solid-phase wells of an “Eiken” DP42 dry plate (Eiken Chemical Co., Ltd., Tokyo, Japan) for 24 hours.
(§2) The minimal inhibitory concentration of any one of the antibacterial agents, i.e., daptomycin (DAP), vancomycin (VCM), teicoplanin (TEIC), and linezolid (LZD), was determined in accordance with the instruction of the product. […] The results obtained by testing resistance to the antibacterial agents of the E. faecalis strains (11 strains) are shown in Table 1 below.

E. faecium isolates = experiment: as above; assay type: cell-based, Enterococcus faecium; details: all E. faecium (19 strains)
Method: as §1, §2

[1] = system: E. faecalis strains JCM5803, JCM8902; experiment: Vancomycin resistance evaluation (method of Example 2 (2)); assay type: cell-based; design: key: resistant: +; nonresistant: −
Method: as §1, §2
(§3) The hemolytic activity of each of the bacterial strains was measured with a hemolysis assay using a Nissui Plate Horse Blood Agar medium. The cytolysin-related gene was detected with PCR. The vancomycin resistance was evaluated using the method described in (2) in Example 2. The vanA gene and the vanB gene that are vancomycin-resistant genes were detected with PCR. Furthermore, each bacterial strain was aerobically cultured in a BHI culture medium, and centrifuged at 300×g for 5 minutes for collection. The cell pellets were washed, and resuspended in a HiTrap buffer. The phage-derived endolysin was added at a final concentration of 50 μg/mL to the cell resuspension liquid. The resulting suspension was incubated at 37° C., and the lytic activity was measured, using the presence or absence of a bacterial lump as an index.

[2] = system: E. faecium strain JCM5804; experiment: as above; assay type: cell-based; design: key: resistant: +; nonresistant: −
Method: as §1, §2, §3

[3] = system: E. faecalis isolate OCU031_14_8; experiment: Lytic activity by turbidity (OD600) of cell resuspension liquid; assay type: cell-based, Enterococcus faecalis; details: final concentration of 50 μg/mL
Method: The E. faecalis isolate OCU031_14_8 was aerobically cultured in a BHI culture medium, and centrifuged at 3,000×g for 15 minutes for collection. The cell pellets were washed, and resuspended in a HiTrap buffer. The phage-derived endolysin was added at a final concentration of 50 μg/mL to the cell resuspension liquid. The turbidity (OD600) was measured with a TVS062CA BioPhoto recorder (ADVANTEC Co., Ltd., Tokyo, Japan) every 1 minute to measure the lytic activity.

[4] = system: biofilms of 11 E. faecalis isolates; experiment: Biofilm assay using crystal-violet staining; assay type: cell-based, Enterococcus faecalis; details: final concentration of 50 μg/mL, incubated overnight; all 11 E. faecalis strains
Method: A biofilm assay was performed, using crystal-violet staining, in accordance with a method described in the past literature (Yang, Y., et al., J Appl Oral Sci., 2018, 26: e20170566; Shao, C., et al., J Proteome res., 2012, 11 (9): 4465-75; He Z., et al., Int J Antimicrob Agents., 2012, 40 (1): 30-5). This assay is a method in which a crystal violet pigment is adsorbed into a bacteria-derived biofilm (comprising an extracellular matrix and the like), and then, ethanol is added to the resulting biofilm to elute the crystal violet pigment, the absorbance of which is measured to quantify the amount of the pigment.
Specifically, each of the 11 species of E. faecalis isolates was cultured at 37° C. overnight in a BHI culture medium supplemented with aztreonam (20 μg/mL), polymyxinB (20 μg/mL), and amphotericinB (4 μg/mL). Then, the isolate was diluted 100-fold with a new BHI culture medium, inoculated into a 96-well flat-bottomed polystyrene microtiter plate (Corning, Inc., Arizona, USA, 353072), and aerobically cultured further at 37° C. for 24 hours. Then, the 96-well plate was washed once with 200 μL of a HiTrap buffer, and 200 μL of phage-derived endolysin or a vehicle (SUMO protein having a His tag added thereto) was added (at a final concentration of 50 μg/mL). […] The absorbance of the sample was measured at 570 nm. […]

[5] = system: GVHD model mice to which E. faecalis OCU031_14_8 strain was administered; experiment: Administration to GVHD model mice to which E. faecalis was administered; assay type: in vivo
Method: All the animal experiments were performed with the approval of the Animal Care and Use Committee of Osaka Metropolitan University. Germ-free C57BL/6 female mice (H2k^b) and SPF 129SvJ/JmsSlc female mice (6 to 8 weeks old) were purchased from SLC Japan Inc. (Hamamatsu, Japan) and CLEA Japan, Inc. (Tokyo, Japan) respectively. The mice were reared under temperature control (23±2° C.) under dark-period conditions from 8 pm to 8 am, and allowed to freely take sterile water and standard solid food for laboratory mice. The germ-free C57BL/6 mice were reared, one individual in one cage.
Before the stem cell transplantation, a suspension of E. faecalis OCU031_14_8 strain was orally administered to the germ-free C57BL/6 female mice. The suspension used was a suspension in which a 2.0×10^8 colony forming unit (cfu) was suspended in 200 μL of sterile PBS. […]
The survival rate after Day 0 was monitored every day. All the survival periods of the groups were statistically analyzed and compared using a generalized Wilcoxon test. […] The number of colonies formed was measured to quantify the amount of E. faecalis bacteria in the feces. […]

[6] = system: GVHD model mice in which patient feces (OCU031_14) with Enterococcus dominance was transplanted; experiment: Administration to GVHD model mice in which fecal sample was transplanted; assay type: in vivo; details: 200 μg orally three times a week
Method: All the animal experiments were performed with the approval of the Animal Care and Use Committee of Osaka Metropolitan University. […] The survival rate after Day 0 was monitored every day, and the composition of the enteric microbes on each of Day 0 and Day 8 was analyzed by 16S rRNA gene sequencing.

[7] = system: E. faecalis strains JCM5803, JCM8902; experiment: Lytic activity using presence or absence of a bacterial lump as an index; assay type: cell-based; design: key to Lysis by endolysin: lyzed: +; not lyzed: −; details: 50 μg/mL; for Lysis by endolysin: 37° C.
Method: as §3

[8] = system: E. faecium strain JCM5804; experiment: as above; assay type: cell-based; design: key to Lysis by endolysin: lyzed: +; not lyzed: −; details: 50 μg/mL
Method: as §3

Molecule: CN[C@H](CC(C)C)C(=O)N[C@H]1C(=O)N[C@@H](CC(N)=O)C(=O)N[C@H]2C(=O)N[C@H]3C(=O)N[C@H](C(=O)N[C@H](C(=O)O)c4cc(O)cc(O)c4-c4cc3ccc4O)[C@H](O)c3ccc(c(Cl)c3)Oc3cc2cc(c3O[C@@H]2O[C@H](CO)[C@@H](O)[C@H](O)[C@H]2O[C@H]2C[C@](C)(N)[C@H](O)[C@H](C)O2)Oc2ccc(cc2Cl)[C@H]1O [vancomycin]
- MIC (E. faecalis isolates; read-out: Minimal inhibitory concentration, E. faecalis strain OCU009_35_4): 2 µg/mL (≈ 1.38 µM)
- MIC (E. faecalis isolates; read-out: Minimal inhibitory concentration, E. faecalis strain OCU009_35_10): 4 µg/mL (≈ 2.76 µM)
- MIC (E. faecalis isolates; read-out: Minimal inhibitory concentration, E. faecalis strain OCU015_56_6): 2 µg/mL (≈ 1.38 µM)
- MIC (E. faecalis isolates; read-out: Minimal inhibitory concentration, E. faecalis strain OCU015_56_7): 2 µg/mL (≈ 1.38 µM)
- MIC (E. faecalis isolates; read-out: Minimal inhibitory concentration, E. faecalis strain OCU031_7_1): 4 µg/mL (≈ 2.76 µM)
- MIC (E. faecalis isolates; read-out: Minimal inhibitory concentration, E. faecalis strain OCU031_7_9): 2 µg/mL (≈ 1.38 µM)
- MIC (E. faecalis isolates; read-out: Minimal inhibitory concentration, E. faecalis strain OCU031_14_5): 4 µg/mL (≈ 2.76 µM)
- MIC (E. faecalis isolates; read-out: Minimal inhibitory concentration, E. faecalis strain OCU031_14_8): 2 µg/mL (≈ 1.38 µM)
- MIC (E. faecalis isolates; read-out: Minimal inhibitory concentration, E. faecalis strain OCU031_pre_6): 2 µg/mL (≈ 1.38 µM)
- MIC (E. faecalis isolates; read-out: Minimal inhibitory concentration, E. faecalis strain OCU031_pre_7): 2 µg/mL (≈ 1.38 µM)
- MIC (E. faecalis isolates; read-out: Minimal inhibitory concentration, E. faecalis strain OCU031_pre_10): 2 µg/mL (≈ 1.38 µM)
- Sensitivity of strains to antibacterial agent (E. faecalis isolates; all E. faecalis strains (11 strains)): exhibited sensitivity
- Sensitivity of strains to antibacterial agent (E. faecium isolates): exhibited sensitivity
- Vancomycin-resistance ([1]; strain JCM5803): −
- Vancomycin-resistance ([1]; strain JCM8902): +
- Vancomycin-resistance [2]: −

B1: phage-derived endolysin: endolysin of SEQ ID NO: 1 found in prophage sequences of 11 E. faecalis isolates; produced from a His-SUMO-labeled expression vector (protein)
chain: MTLNGIDISSWQSNINVGKEGVSADFVIIKATGGTGYINPDCDRAFQQAISSGKKVAVYHFANEVGLEGTAEQEAEFFLKNIKGYIGKAVLVLDWESTNKGDVPWAKRWLDYVQSKTGVKPMFYTYTNVLQSYNFSSIAKADYGLWLADYGANNPQGYSQPTPPSVPYWNFISMYQYTSNGQLPGWNGRLDLNVFFGDRNMWDKYANPKSNPTPAPPVPPKPKRRYGYRVDDLQFVNGIWQVRNDVLGQPDFDWTENGINVAYIDKINPATGENTPDQELKVGDYFAFQPSSVGIITEQYSLNGKTISHVQFPDEFIWLYTESVEKLIYG
modifications: His-SUMO tag; Enterococcus faecalis-derived prophage
notes: produced from a His-SUMO-labeled expression vector
- Lytic activity (OD600 turbidity) [3]: lysed
- Lysis of biofilm (crystal violet, absorbance at 570 nm) [4]: lysed
- Amount of the E. faecalis bacteria in the feces ([5]; 200 μg orally three times a week (10 mg/kg/day) from Day 0 until the third week): noticeable decrease
- Survival rate ([5]; 25 days after the stem cell transplantation, 200 μg orally three times a week): 100%
- Ratio of Enterococcus bacteria present in the enteric microbes ([6]; 8 days after the stem cell transplantation, 16S rRNA gene sequencing): decreased significantly
- Survival rate ([6]; 30 days after the stem cell transplantation): 100%
- Lytic activity ([7]; JCM8902 strain, vancomycin-resistant and cytolysin-positive E. faecalis isolate): exhibited a lytic activity
- Lysis by endolysin ([7]; strain JCM5803): +
- Lysis by endolysin ([7]; strain JCM8902 (vancomycin-resistant, cytolysin-positive)): +
- Lytic activity ([8]; JCM5804 strain, E. faecium isolate): did not exhibit a lytic activity
- Lysis by endolysin ([8]; strain JCM5804, 37° C.): −
